US5840721A, “Imidazole derivatives as MDR modulators” (Ontogen Corporation, priority 1997, dated 1998)

Legend:
CEM/VLB1000 cell line [1] = assay: Cytotoxicity potentiation: enhancement of vinblastine cytotoxicity in MDR cell line (alamar blue); format: cell-based, human; settings: Homo sapiens, midpoint of minimum and maximum cytotoxicity induced by 3-5 μg/mL vinblastine and compound, 48 hours incubation, alamar blue 24 hours, read-out: Cytotocicity Potentiation (EC50)
Procedure: Multidrug-resistant cell lines are easily obtainable for in vitro determination of drug sensitization by compounds of the present invention. In vitro potentiation of antineoplastic cytotoxicity by the imidazole derivatives of the present invention was measured in both CEM/VLB1000 and SK/VLB1000 cell lines. The multidrug resistant cell lines were obtained from Dr. Victor Ling, Ontario Cancer Institute, Toronto, Canada. The CEM/VLB 1000 cell line was maintained as a suspension in minimum essential medium supplemented with 10% fetal bovine serum in a humidied atmosphere of 95% air and 5% CO2 while the SK/VLB 1000 cell line was maintained as adherent cells using the identical medium conditions as the CEM cells. The CEM/VLB 1000 cells were seeded at a density of 5×10^4 cells/well in a 96 well microtiter plate while the SK/VLB 1000 cell line was seeded at a density of 2,500 cells/well after trypsinization.

CEM/VLB1000 cell line [2] = assay: [3H]VLB accumulation in CEM/VLB1000 cells; format: cell-based; settings: Homo sapiens, midpoint of minimum and maximum increase in accumulation of 3H-vinblastine (275 nM), 3 hours at 37° C
Procedure: ^3 H-vinblastine accumulation was also measured in the CEM/VLB1000 cell line. Corning Easy-Wash 96 well plates were pretreated with PBS and 1% BSA for 60 minutes and then removed. CEM/VLB1000 cells were seeded at 2×10^5, 40 μL volume. Plates were incubated at 37° C. for 30-60 minutes prior to use. The reference reversing agent, verapamil, or the compound of the present invention was added to the well followed by addition of media containing ^3 H-vinblastine (final concentration=275nM). Plates were allowed to incubate for 3 hours at 37° C. Cells were harvested onto pretreated Wallace filtermats A (pretreated with 0.1% polyethyleneimine) using a TomTek harvester-96. After filtering, the filtermats were allowed to dry completely. Meltix B scintillant was then added to the filtermats. The filters were then placed in a 90° C. oven for approximately 3-5 minutes and then removed. Scintillant was allowed to solidify on the filtermats. Filtermats were then placed in sample bags and read on a Wallace BetaPlate scintillation counter. The effects of compounds of the present invention in the cytotoxicity potentiation assays and vinblastine (VLB) accumulation assay are given in the Table below:
^2 Values presented are the midpoint (EC50 ) of the minimum and
maximum increase in accumulation of ^3 Hvinblastine caused by the
specfic compound of the present invention.

Structure (SMILES) | EC50 (CEM/VLB1000 cell line [1]) [nM] | EC50 (CEM/VLB1000 cell line [2]) [nM]
CN(C)c1ccc(-c2nc(-c3ccc(/C=C/COCc4ccccc4)cc3)[nH]c2-c2ccc(N(C)C)cc2)cc1 [Example 77, 2-[4-(3-benzyloxy-trans-1-propen-1-yl)phenyl]-4,5-bis (4-N,N-dimethylaminophenyl) imidazole] | 340 | 1200
CN(C)C(=O)/C=C/c1ccc(-c2nc(-c3ccc(N(C)C)cc3)c(-c3ccc(N(C)C)cc3)[nH]2)cc1 [Example 111] | 620 | 1700
CN(C)c1ccc(-c2nc(-c3ccc(/C=C/CO)cc3)[nH]c2-c2ccc(N(C)C)cc2)cc1 [Example 113, 2-[4-(3-hydroxy-trans-1-propen-1-yl)phenyl]-4,5-bis (4-N,N-dimethylaminophenyl) imidazole] | 410 | 3900
